Experimental data: ChEMBL document CHEMBL3044890, “Peroxidizing Phytotoxicities of 1, 2-Alkylene-1, 2, 4-triazolidines and 3, 4-Alkylene-1, 3, 4-thiadiazolidines” (J Pestic Sci, 1996)

Molecular target: T1, Protoporphyrinogen IX oxidase (Zea mays, UniProt Q9FYV8)
T1 sequence (Q9FYV8 whole entry): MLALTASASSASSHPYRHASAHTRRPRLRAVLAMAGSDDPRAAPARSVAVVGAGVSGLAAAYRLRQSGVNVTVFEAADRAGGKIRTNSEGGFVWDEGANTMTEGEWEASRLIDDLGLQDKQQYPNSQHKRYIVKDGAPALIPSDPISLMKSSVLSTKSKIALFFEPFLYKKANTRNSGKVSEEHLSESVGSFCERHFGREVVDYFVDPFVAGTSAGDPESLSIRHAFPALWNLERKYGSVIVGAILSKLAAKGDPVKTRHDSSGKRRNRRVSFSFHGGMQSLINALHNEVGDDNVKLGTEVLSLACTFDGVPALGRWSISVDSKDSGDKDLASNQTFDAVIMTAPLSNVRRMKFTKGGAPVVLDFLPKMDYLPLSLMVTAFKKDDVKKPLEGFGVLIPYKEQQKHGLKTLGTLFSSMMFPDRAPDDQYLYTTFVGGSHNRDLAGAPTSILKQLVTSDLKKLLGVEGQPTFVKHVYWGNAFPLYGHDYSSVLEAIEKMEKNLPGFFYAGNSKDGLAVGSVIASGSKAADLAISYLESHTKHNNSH
Assay: Inhibition of Zea mays cv. Anjou (maize) plastid Protoporphyrinogen IX oxidase assessed as inhibition of protoporphyrin IX by fluorescence spectrophotometry
Details: read-out: pI50 (converted)

| SMILES | IC50 [nM] |
| --- | --- |
| O=c1s/c(=N\c2ccc(Br)cc2)n2n1CCC2 | 3630 |
| S=c1n(-c2ccc(Br)cc2)c(=S)n2n1CCC2 | 28.8 |
| O=C1C2=C(CCCC2)C(=O)N1c1ccc(Br)cc1 | 50.1 |
| S=c1n(-c2ccc(Br)cc2)c(=S)n2n1CCCCC2 | 70.8 |
| O=c1n(-c2ccc(Br)cc2)c(=S)n2n1CCC2 | 53.7 |
| S=c1s/c(=N\c2ccc(Br)cc2)n2n1CCC2 | 324 |

More lines, now with the values ahead:

| IC50 [nM] | SMILES |
| --- | --- |
| 129 | O=c1n(-c2ccc(Br)cc2)c(=S)n2n1CCCCC2 |
| 617 | O=c1n(-c2ccc(Br)cc2)c(=O)n2n1CCC2 |
| 2510 | O=c1n(-c2ccc(Br)cc2)c(=O)n2n1CCCCC2 |
| 339 | O=c1n(-c2ccc(Br)cc2)c(=O)n2n1CCCC2 |
| 12.9 | O=c1n(-c2ccc(Br)cc2)c(=S)n2n1CCCC2 |
